In patent US10689383B2, “Optionally fused heterocyclyl-substituted derivatives of pyrimidine useful for the treatment of inflammatory, metabolic, oncologic and autoimmune diseases” (NUEVOLUTION A/S, priority 2014, dated 2020):

What was measured:
Th17 cells = assay: Th17 Assay (IL-17 levels in supernatants by ELISA); type: cell-based; conditions: Homo sapiens; read-out: Th17 activity range @ 1 μM (% inhibition)
Description: The activity of the compounds was evaluated using a Fluorescence Polarization (FP) Assay and, in most cases, a Th17 Assay and/or RORγ Reporter assay (also referred to as Gal4 assay). The FP assay is an in vitro assay monitoring binding within the ligand binding pocket. The RORγ and the Th17 assays are both cell-based assays monitoring functional activity of the compound assayed.
Human peripheral blood mononuclear cells (PBMCs) were isolated from buffy coats of healthy human volunteers using the Ficoll paque PLUS kit (GE Healthcare, cat no 17-1440-02), as instructed by the manufacturer. Naive CD4+ T cells were isolated with Naive CD4+ T cell kit, human (Milteny Biotec, cat no 130-094-131). The following modifications were made to the manufacturer's protocol: 1) Incubation with Biotin-Antibody Cocktail and Anti-Biotin MicroBeads was prolonged to 30 minutes, and 2) Cells were washed with 40 mL of Miltenyi buffer. Differentiation of Th17 cells in anti-CD3 (BD Pharmingen, 5 μg/ml) coated 96-well plates (400,000 cells/well, 160 μl RPMI 1640+10% Fetal Bovine Serum) containing 5 μg/ml anti-CD28 (BD Pharmingen), 10 ng/ml IL-2 (R&D Systems), 2.5 ng/ml TGFβ-1 (R&D Systems), 20 ng/ml IL-1β (R&D Systems), 20 ng/ml IL-6 (R&D Systems), 30 ng/ml IL-23 (R&D Systems), 2.5 μg/ml anti-IL-4 (R&D Systems) and 1 μg/ml anti-IFNγ (R&D Systems) and with test compound during the entire differentiation (or vehicle, 0.1% DMSO for control). Test compounds were tested in triplicates, diluted 1000-fold in medium (final DMSO concentration is 0.1%). Incubated for seven days at 37° C., 5% CO2, 95% humidity, and 2-fluoro-4′-[[4-(4-pyridinylmethyl)-1-piperazinyl]methyl]-α,α-bis(trifluoromethyl)-[1,1′-biphenyl]-4-methanol (SR2211 Calbiochem, Cat. No. 557353) was used as positive control. As negative control, cells were differentiated into Th0 using 5 μg/ml anti-CD28 (BD Pharmingen), 10 ng/ml IL-2 (R&D Systems), 2 μg/ml anti-IL4 (R&D Systems) and 2 μg/ml anti-IFNγ (R&D Systems) are negative control. IL-17 levels in supernatants were measured with ELISA (R&D Systems).

[1] = target: T1, human RORγt (Ligand Binding Domain) (Homo sapiens, UniProt P51449); assay: Fluorescence Polarization (FP) Assay; conditions: Fluorescence Polarization (FP) Assay; values given as upper bounds of activity ranges; read-out: FP activity range
T1 construct: purchased Crelux (Planegg, Germany) batch no PC5032-1
T1 sequence (P51449 269-508 limits assumed): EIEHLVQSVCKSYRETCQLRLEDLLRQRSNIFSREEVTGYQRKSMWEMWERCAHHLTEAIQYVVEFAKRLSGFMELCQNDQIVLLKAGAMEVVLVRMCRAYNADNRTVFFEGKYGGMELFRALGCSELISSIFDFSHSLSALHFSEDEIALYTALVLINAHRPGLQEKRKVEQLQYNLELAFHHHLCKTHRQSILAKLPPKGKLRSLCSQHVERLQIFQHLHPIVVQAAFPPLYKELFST
How it was run: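 Binding to the ligand pocket followed by fluorescence polarization with a TAMRA-tagged RORγt ligand probe of 910 g/mole. Negative control wells received DMSO only.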

[2] = target: T2, yeast Gal4-DNA binding domain fused to the ligand binding domain of human RORγ (Homo sapiens, UniProt P51449); assay: RORγ Reporter Assay (Gal4); type: cell-based; conditions: values given as lower bounds of ranges; for Gal4 activity range @ 0.1 μM (% inhibition): RORγ Reporter Assay (Gal4) at 0.1 μM; for Gal4 activity range @ 1 μM (% inhibition): RORγ Reporter Assay (Gal4) at 1 μM
T2 construct: host or cells: HEK293t
T2 sequence (P51449 269-508 limits assumed): T1 sequence (P51449 269-508 limits assumed)
How it was run: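 Compound at final 1,000 or 100 nM (0.1% DMSO, triplicate) was added to the transfected HEK293t cells carrying a Gal4-UAS luciferase reporter for 24 h at 37 °C, 10% charcoal-stripped FBS. Activity reduction expressed as percent of vehicle-only luciferase signal.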

Compound | IC50 [1] | Gal4 activity range @ 0.1 μM (% inhibition) [2] | Gal4 activity range @ 1 μM (% inhibition) [2] | inhibition at 1 µM (Th17 cells)
CC(C)C[C@@H](Oc1ncnc(N2CCC[C@@H]2c2ccc(C(F)(F)F)cc2)c1F)C(N)=O (single isomer, unassigned) [Example 77, (2R)-2-[5-fluoro-6-[(2R)-2-[4-(trifluoromethyl)phenyl]pyrrolidin-1-yl]pyrimidin-4-yl]oxy-4-methyl-pentanamide or (2R)-2-[5-fluoro-6-[(2S)-2-[4-(trifluoromethyl)phenyl]pyrrolidin-1-yl]pyrimidin-4-yl]oxy-4-methyl-pentanamide] |  |  |  | > 50%
COC(C)(C)CC(C)Nc1ncnc(N2CCCC2c2ccc(C(F)(F)F)cc2)c1F (centres unmarked) [Example 16, 5-fluoro-N-(3-methoxy-1,3-dimethyl-butyl)-6-[2-[4-(trifluoromethyl)phenyl]pyrrolidin-1-yl]pyrimidin-4-amine] |  |  |  | > 0%
CC(C)C[C@@H](Oc1ncnc(-n2nccc2-c2ccc(C(F)(F)F)cc2)c1F)C(N)=O [Example 80, (2R)-2-[5-fluoro-6-[5-[4-(trifluoromethyl)phenyl]pyrazol-1-yl]pyrimidin-4-yl]oxy-4-methyl-pentanamide] |  |  |  | > 50%
O=C(O)Cc1ccc(COc2ncnc(NCc3ccc(C(F)(F)F)cc3)c2F)cc1 [Example 83, 2-[4-[[5-fluoro-6-[[4-(trifluoromethyl)phenyl]methylamino]pyrimidin-4-yl]oxymethyl]phenyl]acetic acid] |  |  |  | > 20%
Cc1ccc(C2CCCN2c2ncnc(NCc3ccc(CC(N)=O)cc3)c2F)o1 (centres unmarked) [Example 313, 2-[4-[[[5-fluoro-6-[2-(5-methyl-2-furyl)pyrrolidin-1-yl]pyrimidin-4-yl]amino]methyl]phenyl]acetamide] | < 500 nM | >20 % inhibition | >80 % inhibition | 
CCc1ccc(C2CCCN2c2ncnc(NCc3ccc(CC(N)=O)cc3)c2F)o1 (centres unmarked) [Example 316, 2-[4-[[[6-[2-(5-ethyl-2-furyl)pyrrolidin-1-yl]-5-fluoro-pyrimidin-4-yl]amino]methyl]phenyl]acetamide] | < 500 nM | >20 % inhibition | >80 % inhibition | 
COc1ccc(C2CCCN2c2ncnc(NCc3ccc(CC(N)=O)cc3)c2F)c(OC)c1 (centres unmarked) [Example 318, 2-[4-[[[6-[2-(2,4-dimethoxyphenyl)pyrrolidin-1-yl]-5-fluoro-pyrimidin-4-yl]amino]methyl]phenyl]acetamide] | < 500 nM | >20 % inhibition | >20 % inhibition | 
NC(=O)Cc1ccc(Cn2ccc3c(N4CCOC[C@@H]4c4ccc(C(F)(F)F)nc4)ncnc32)cc1 [Example 326, 2-[4-[[4-[(3S)-3-[6-(trifluoromethyl)-3-pyridyl]morpholin-4-yl]pyrrolo[2,3-d]pyrimidin-7-yl]methyl]phenyl]acetamide] | < 500 nM | >50 % inhibition | >80 % inhibition | 
NC(=O)Cc1ccc(Cn2ccc3c(N4CCOC[C@@H]4c4ccc(C(F)(F)F)cn4)ncnc32)cc1 [Example 328, 2-[4-[[4-[(3S)-3-[5-(trifluoromethyl)-2-pyridyl]morpholin-4-yl]pyrrolo[2,3-d]pyrimidin-7-yl]methyl]phenyl]acetamide] | < 500 nM | >80 % inhibition | >80 % inhibition | 

Second part, led by results:

IC50 [1] | Gal4 activity range @ 0.1 μM (% inhibition) [2] | Gal4 activity range @ 1 μM (% inhibition) [2] | Compound | inhibition at 1 µM (Th17 cells)
< 10000 nM |  |  | CC(C)(C)C[C@@H](Nc1cc(N2CCCC2c2ccc(C(F)(F)F)cc2)ncn1)C(N)=O (stereo partly drawn) [Example 6, (2R)-4,4-dimethyl-2-[[6-[2-[4-(trifluoromethyl)phenyl]pyrrolidin-1-yl]pyrimidin-4-yl]amino]pentanamide] | > 20%
< 10000 nM |  |  | CC(C)(C)C[C@@H](Nc1nc(C(F)(F)F)nc(N2CCCC2c2ccc(C(F)(F)F)cc2)c1F)C(N)=O (stereo partly drawn) [Example 13, (2R)-2-[[5-fluoro-2-(trifluoromethyl)-6-[2-[4-(trifluoromethyl)phenyl]pyrrolidin-1-yl]pyrimidin-4-yl]amino]-4,4-dimethyl-pentanamide] | > 20%
< 500 nM |  |  | CC1CC(c2ccc(C(F)(F)F)cc2)N(c2ncnc(N[C@H](CC(C)(C)C)C(N)=O)c2F)C1 (stereo partly drawn) [Example 18, (2R)-2-[[5-fluoro-6-[4-methyl-2-[4-(trifluoromethyl)phenyl]pyrrolidin-1-yl]pyrimidin-4-yl]amino]-4,4-dimethyl-pentanamide] | > 80%
< 500 nM |  |  | CC(C)(C)C[C@@H](Nc1ncnc(N2CCCC2c2ccc(C(C)(C)C)cc2)c1F)C(N)=O (stereo partly drawn) [Example 19, (2R)-2-[[6-[2-(4-tert-butylphenyl)pyrrolidin-1-yl]-5-fluoro-pyrimidin-4-yl]amino]-4,4-dimethyl-pentanamide] | > 80%
< 10000 nM | >20 % inhibition | >50 % inhibition | NC(=O)Cc1ccc(CNc2ncnc(N3CCCCC3c3ccc(C(F)(F)F)cc3)c2F)cc1 (centres unmarked) [Example 308, 2-[4-[[[5-fluoro-6-[2-[4-(trifluoromethyl)phenyl]-1-piperidyl]pyrimidin-4-yl]amino]methyl]phenyl]acetamide] | 
< 500 nM |  | >0 % inhibition | O=S(=O)(O)c1ccc(CNc2ncnc(N3CCC[C@@H]3c3ccc(C(F)(F)F)cc3)c2F)cc1 [Example 319, 4-[[[5-fluoro-6-[(2R)-2-[4-(trifluoromethyl)phenyl]pyrrolidin-1-yl]pyrimidin-4-yl]amino]methyl]benzenesulfonic acid] | 
< 500 nM | >80 % inhibition | >80 % inhibition | COCCNS(=O)(=O)c1ccc(CNc2ncnc(N3CCC[C@@H]3c3ccc(C(F)(F)F)cc3)c2F)cc1 [Example 320, 4-[[[5-fluoro-6-[(2R)-2-[4-(trifluoromethyl)phenyl]pyrrolidin-1-yl]pyrimidin-4-yl]amino]methyl]-N-(2-methoxyethyl)benzenesulfonamide] | 
< 500 nM | >80 % inhibition | >80 % inhibition | NC(=O)Cc1ccc(CNc2ncnc(N3CCCC3c3ccc(C(F)(F)F)cc3O)c2F)cc1 (centres unmarked) [Example 323, 2-[4-[[[5-fluoro-6-[2-[2-hydroxy-4-(trifluoromethyl)phenyl]pyrrolidin-1-yl]pyrimidin-4-yl]amino]methyl]phenyl]acetamide] | 
< 500 nM | >50 % inhibition | >80 % inhibition | CS(=O)(=O)N1CCC(CNc2ncnc(N3CCCC3c3ccc(C(F)(F)F)cc3O)c2F)CC1 (centres unmarked) [Example 324, 2-[1-[5-fluoro-6-[(1-methylsulfonyl-4-piperidyl)methylamino]pyrimidin-4-yl]pyrrolidin-2-yl]-5-(trifluoromethyl)phenol] | 
< 1000 nM | >20 % inhibition | >80 % inhibition | CS(=O)(=O)N1CCC(CNc2ncnc(N3CCOC[C@@H]3c3ccc(C(F)(F)F)cc3)c2F)C1 (stereo partly drawn) [Example 327, 5-fluoro-N-[(1-methylsulfonylpyrrolidin-3-yl)methyl]-6-[(3S)-3-[4-(trifluoromethyl)phenyl]morpholin-4-yl]pyrimidin-4-amine] | 
